Measurements as given in article PMC12090182, “Repurposing of the RIPK1-Selective Benzo[1,4]oxazepin-4-one Scaffold for the Development of a Type III LIMK1/2 Inhibitor” (ACS Chemical Biology, 2025).

Columns and labels:
Experiment in all cases: biochemical
Format in all cases: binding
[1] = target: 468 kinases including some pathogenic mutants (Homo sapiens, UniProt O00329); conditions: PIK3CD (Entrez PIK3CD), 100 nM; read-out: Percent Control
[2] = target: 468 kinases including some pathogenic mutants (Homo sapiens, UniProt P06241); conditions: FYN (Entrez FYN), 100 nM; read-out: Percent Control
[3] = target: 468 kinases including some pathogenic mutants (Homo sapiens, UniProt P07949, V804M); conditions: read-out: Percent Control
[4] = target: 468 kinases including some pathogenic mutants (Homo sapiens, UniProt P10721, A829P); conditions: read-out: Percent Control
[5] = target: 468 kinases including some pathogenic mutants (Homo sapiens, UniProt P22455); conditions: FGFR4 (Entrez FGFR4), 100 nM; read-out: Percent Control
[6] = target: 468 kinases including some pathogenic mutants (Homo sapiens, UniProt P41240); conditions: CSK (Entrez CSK), 100 nM; read-out: Percent Control
[7] = target: 468 kinases including some pathogenic mutants (Homo sapiens, UniProt P45985); conditions: MEK4 (Entrez MAP2K4), 1000 nM; read-out: Percent Control
[8] = target: 468 kinases including some pathogenic mutants (Homo sapiens, UniProt P80192); conditions: MLK1 (Entrez MAP3K9), 1000 nM; read-out: Percent Control
468 kinases including some pathogenic mutants (Homo sapiens, UniProt P80192), sequence (P80192 whole entry, change not shown): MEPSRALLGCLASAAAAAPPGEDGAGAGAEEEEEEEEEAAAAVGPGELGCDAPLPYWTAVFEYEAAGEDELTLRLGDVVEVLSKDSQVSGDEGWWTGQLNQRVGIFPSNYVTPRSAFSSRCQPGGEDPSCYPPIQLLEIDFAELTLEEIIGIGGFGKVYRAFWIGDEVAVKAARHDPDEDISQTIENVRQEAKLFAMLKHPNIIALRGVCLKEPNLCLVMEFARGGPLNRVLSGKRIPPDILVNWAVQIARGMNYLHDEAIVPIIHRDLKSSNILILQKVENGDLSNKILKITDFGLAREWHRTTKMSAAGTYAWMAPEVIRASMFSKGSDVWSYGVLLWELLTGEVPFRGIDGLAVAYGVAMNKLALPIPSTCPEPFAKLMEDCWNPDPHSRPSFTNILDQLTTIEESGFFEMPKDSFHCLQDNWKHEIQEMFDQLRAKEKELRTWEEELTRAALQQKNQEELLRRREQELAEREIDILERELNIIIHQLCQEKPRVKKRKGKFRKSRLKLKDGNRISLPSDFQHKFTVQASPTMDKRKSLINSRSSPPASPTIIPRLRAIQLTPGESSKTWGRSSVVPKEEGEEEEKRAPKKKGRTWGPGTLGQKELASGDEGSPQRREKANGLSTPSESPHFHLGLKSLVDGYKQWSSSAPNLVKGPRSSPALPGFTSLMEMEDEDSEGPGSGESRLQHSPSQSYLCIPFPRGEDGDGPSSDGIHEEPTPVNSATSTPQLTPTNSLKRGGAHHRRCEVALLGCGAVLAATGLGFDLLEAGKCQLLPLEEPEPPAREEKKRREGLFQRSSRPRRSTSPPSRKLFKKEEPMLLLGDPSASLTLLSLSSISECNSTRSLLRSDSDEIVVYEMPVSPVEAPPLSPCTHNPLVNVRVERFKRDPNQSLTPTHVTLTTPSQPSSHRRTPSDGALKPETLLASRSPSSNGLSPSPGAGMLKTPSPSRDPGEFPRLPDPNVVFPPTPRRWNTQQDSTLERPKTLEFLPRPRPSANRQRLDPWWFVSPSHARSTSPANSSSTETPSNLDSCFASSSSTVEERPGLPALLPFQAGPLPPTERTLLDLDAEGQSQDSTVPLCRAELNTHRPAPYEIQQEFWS

[9] = target: 468 kinases including some pathogenic mutants (Homo sapiens, UniProt Q04912); conditions: MST1R (Entrez MST1R), 100 nM; read-out: Percent Control
[10] = target: 468 kinases including some pathogenic mutants (Homo sapiens, UniProt Q13131); conditions: AMPK-alpha1 (Entrez PRKAA1), 100 nM; read-out: Percent Control
[11] = target: 468 kinases including some pathogenic mutants (Homo sapiens, UniProt Q13627); conditions: DYRK1A (Entrez DYRK1A), 100 nM; read-out: Percent Control
[12] = target: 468 kinases including some pathogenic mutants (Homo sapiens, UniProt Q16620); conditions: TRKB (Entrez NTRK2), 100 nM; read-out: Percent Control
[13] = target: 468 kinases including some pathogenic mutants (Homo sapiens, UniProt Q32MK0); conditions: MLCK (Entrez MYLK3), 100 nM; read-out: Percent Control
[14] = target: 468 kinases including some pathogenic mutants (Homo sapiens, UniProt Q6XUX3); conditions: RIPK5 (Entrez DSTYK), 1000 nM; read-out: Percent Control
[15] = target: 468 kinases including some pathogenic mutants (Homo sapiens, UniProt Q86Y07); conditions: VRK2 (Entrez VRK2), 1000 nM; read-out: Percent Control
468 kinases including some pathogenic mutants (Homo sapiens, UniProt Q86Y07), sequence (Q86Y07 whole entry, change not shown): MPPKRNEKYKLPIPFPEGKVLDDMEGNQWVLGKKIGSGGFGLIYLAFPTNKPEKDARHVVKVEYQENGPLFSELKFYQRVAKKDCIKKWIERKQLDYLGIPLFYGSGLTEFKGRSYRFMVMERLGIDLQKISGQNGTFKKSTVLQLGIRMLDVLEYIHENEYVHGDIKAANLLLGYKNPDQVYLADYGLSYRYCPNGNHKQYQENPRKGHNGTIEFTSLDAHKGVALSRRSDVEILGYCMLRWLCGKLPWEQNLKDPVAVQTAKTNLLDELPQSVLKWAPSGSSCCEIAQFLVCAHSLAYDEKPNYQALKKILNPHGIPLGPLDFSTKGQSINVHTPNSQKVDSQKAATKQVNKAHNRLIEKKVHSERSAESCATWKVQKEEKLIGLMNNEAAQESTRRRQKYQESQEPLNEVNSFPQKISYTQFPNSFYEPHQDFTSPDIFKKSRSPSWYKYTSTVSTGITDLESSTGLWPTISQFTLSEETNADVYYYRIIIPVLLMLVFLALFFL

[16] = target: 468 kinases including some pathogenic mutants (Homo sapiens, UniProt Q8TD19); conditions: NEK9 (Entrez NEK9), 100 nM; read-out: Percent Control
[17] = target: 468 kinases including some pathogenic mutants (Homo sapiens, UniProt Q96L34); conditions: MARK4 (Entrez MARK4), 1000 nM; read-out: Percent Control
[18] = target: 468 kinases including some pathogenic mutants (Homo sapiens, UniProt Q96NX5); conditions: CAMK1G (Entrez CAMK1G), 100 nM; read-out: Percent Control
[19] = target: 468 kinases including some pathogenic mutants (Homo sapiens, UniProt Q96RR4); conditions: CAMKK2 (Entrez CAMKK2), 100 nM; read-out: Percent Control
[20] = target: 468 kinases including some pathogenic mutants (Homo sapiens, UniProt Q99759); conditions: MAP3K3 (Entrez MAP3K3), 100 nM; read-out: Percent Control
468 kinases including some pathogenic mutants (Homo sapiens, UniProt Q99759), sequence (Q99759 whole entry, change not shown): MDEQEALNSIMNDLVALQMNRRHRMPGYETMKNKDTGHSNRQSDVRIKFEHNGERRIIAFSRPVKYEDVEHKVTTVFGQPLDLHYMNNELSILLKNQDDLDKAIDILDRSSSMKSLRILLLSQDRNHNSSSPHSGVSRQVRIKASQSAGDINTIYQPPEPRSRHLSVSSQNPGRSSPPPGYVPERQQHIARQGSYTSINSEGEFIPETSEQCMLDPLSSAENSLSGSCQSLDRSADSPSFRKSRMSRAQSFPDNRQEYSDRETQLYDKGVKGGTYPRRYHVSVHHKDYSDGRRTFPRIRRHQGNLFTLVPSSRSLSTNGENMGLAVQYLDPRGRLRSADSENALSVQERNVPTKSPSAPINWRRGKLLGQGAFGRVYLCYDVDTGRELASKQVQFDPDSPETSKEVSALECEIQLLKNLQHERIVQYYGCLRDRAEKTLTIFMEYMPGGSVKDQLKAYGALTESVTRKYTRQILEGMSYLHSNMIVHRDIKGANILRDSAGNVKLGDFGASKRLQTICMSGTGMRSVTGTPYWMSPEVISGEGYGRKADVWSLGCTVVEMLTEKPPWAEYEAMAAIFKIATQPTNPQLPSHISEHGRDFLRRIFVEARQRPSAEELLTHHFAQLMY

[21] = target: 468 kinases including some pathogenic mutants (Homo sapiens, UniProt Q9BUB5); conditions: MKNK1 (Entrez MKNK1), 100 nM; read-out: Percent Control
[22] = target: 468 kinases including some pathogenic mutants (Homo sapiens, UniProt Q9BXA7); conditions: TSSK1B (Entrez TSSK1B), 100 nM; read-out: Percent Control
468 kinases including some pathogenic mutants (Homo sapiens, UniProt Q9BXA7), sequence (Q9BXA7 whole entry, change not shown): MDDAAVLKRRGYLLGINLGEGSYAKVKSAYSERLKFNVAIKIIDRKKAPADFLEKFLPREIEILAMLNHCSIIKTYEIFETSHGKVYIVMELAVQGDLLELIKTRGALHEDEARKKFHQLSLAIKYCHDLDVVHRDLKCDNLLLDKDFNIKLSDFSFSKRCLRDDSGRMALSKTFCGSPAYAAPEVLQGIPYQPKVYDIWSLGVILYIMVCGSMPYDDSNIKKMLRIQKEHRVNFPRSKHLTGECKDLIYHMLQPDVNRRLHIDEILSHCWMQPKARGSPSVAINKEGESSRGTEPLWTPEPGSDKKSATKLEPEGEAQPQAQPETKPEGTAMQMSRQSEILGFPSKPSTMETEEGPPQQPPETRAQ

[23] = target: 468 kinases including some pathogenic mutants (Homo sapiens, UniProt Q9H0K1); conditions: SIK2 (Entrez SIK2), 1000 nM; read-out: Percent Control
[24] = target: 468 kinases including some pathogenic mutants (Homo sapiens, UniProt Q9UBE8); conditions: NLK (Entrez NLK), 100 nM; read-out: Percent Control
468 kinases including some pathogenic mutants (Homo sapiens, UniProt Q9UBE8), sequence (Q9UBE8 whole entry, change not shown): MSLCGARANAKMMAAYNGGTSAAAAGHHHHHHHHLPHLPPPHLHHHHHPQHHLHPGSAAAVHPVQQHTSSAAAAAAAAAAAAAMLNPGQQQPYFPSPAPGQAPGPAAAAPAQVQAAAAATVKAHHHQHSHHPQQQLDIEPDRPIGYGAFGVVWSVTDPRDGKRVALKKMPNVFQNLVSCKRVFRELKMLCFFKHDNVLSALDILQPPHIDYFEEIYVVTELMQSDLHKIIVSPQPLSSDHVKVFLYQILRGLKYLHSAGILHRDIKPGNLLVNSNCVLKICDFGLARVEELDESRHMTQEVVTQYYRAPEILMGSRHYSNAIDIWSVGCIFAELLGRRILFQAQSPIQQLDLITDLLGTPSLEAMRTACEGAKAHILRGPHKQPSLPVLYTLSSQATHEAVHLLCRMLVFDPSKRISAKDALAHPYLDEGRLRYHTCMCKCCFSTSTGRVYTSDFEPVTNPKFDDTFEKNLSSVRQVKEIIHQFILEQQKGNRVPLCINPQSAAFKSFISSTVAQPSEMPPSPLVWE

[25] = target: 468 kinases including some pathogenic mutants (Homo sapiens, UniProt Q9UF33); conditions: EPHA6 (Entrez EPHA6), 100 nM; read-out: Percent Control
[26] = target: 468 kinases including some pathogenic mutants (Homo sapiens, UniProt Q9Y2H9); conditions: MAST1 (Entrez MAST1), 100 nM; read-out: Percent Control
468 kinases including some pathogenic mutants (Homo sapiens, UniProt Q9Y2H9), sequence (Q9Y2H9 whole entry, change not shown): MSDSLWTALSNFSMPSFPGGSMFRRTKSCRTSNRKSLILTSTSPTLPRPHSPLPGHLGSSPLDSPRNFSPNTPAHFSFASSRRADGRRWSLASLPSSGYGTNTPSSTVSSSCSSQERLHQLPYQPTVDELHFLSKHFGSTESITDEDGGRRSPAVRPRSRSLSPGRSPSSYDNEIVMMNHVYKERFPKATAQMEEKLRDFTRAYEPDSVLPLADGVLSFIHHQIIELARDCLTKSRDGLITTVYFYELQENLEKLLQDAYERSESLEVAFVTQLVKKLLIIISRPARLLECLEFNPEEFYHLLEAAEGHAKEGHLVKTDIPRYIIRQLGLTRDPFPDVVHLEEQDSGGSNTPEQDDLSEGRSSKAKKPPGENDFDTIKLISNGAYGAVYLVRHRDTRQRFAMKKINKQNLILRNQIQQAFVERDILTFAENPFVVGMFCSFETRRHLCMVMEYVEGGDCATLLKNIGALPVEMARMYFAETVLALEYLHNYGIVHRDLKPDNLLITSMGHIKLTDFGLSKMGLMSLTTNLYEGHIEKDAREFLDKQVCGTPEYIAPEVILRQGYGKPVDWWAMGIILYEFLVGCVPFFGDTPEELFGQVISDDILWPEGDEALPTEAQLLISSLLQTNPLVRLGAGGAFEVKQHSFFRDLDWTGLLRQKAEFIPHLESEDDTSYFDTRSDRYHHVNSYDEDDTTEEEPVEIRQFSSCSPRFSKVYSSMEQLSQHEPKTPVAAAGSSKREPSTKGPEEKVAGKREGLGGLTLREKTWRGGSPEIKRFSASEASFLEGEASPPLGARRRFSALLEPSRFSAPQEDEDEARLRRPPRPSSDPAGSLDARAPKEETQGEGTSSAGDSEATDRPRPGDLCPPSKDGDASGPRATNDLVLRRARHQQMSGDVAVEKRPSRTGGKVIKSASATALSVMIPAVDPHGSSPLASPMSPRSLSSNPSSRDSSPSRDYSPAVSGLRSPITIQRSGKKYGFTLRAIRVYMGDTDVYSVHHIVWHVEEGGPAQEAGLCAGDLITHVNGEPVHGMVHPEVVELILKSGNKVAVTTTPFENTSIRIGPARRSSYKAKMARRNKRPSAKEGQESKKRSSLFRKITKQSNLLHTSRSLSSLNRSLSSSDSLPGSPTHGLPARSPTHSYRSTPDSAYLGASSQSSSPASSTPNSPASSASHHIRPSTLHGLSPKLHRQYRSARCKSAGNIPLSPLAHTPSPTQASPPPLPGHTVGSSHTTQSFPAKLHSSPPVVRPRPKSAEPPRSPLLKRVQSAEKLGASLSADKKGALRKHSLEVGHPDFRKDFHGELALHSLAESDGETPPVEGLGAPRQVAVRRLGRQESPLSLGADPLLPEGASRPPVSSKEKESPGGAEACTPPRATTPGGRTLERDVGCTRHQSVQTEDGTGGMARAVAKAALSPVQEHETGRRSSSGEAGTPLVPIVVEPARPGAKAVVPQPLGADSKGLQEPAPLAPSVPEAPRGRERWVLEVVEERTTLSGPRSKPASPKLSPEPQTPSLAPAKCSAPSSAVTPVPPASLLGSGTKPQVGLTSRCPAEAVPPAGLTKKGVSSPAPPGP

[27] = target: 468 kinases including some pathogenic mutants (Homo sapiens, UniProt Q9Y2I7); conditions: PIKFYVE (Entrez PIKFYVE), 1000 nM; read-out: Percent Control
[28] = target: 468 kinases including some pathogenic mutants (Homo sapiens, UniProt Q9Y2U5); conditions: MAP3K2 (Entrez MAP3K2), 1000 nM; read-out: Percent Control

CN1C(=O)[C@@H](N2CCc3c(nn(Cc4ccccc4)c3C(N)=O)C2=O)COc2cc(Cl)ccc21 [Compound 10, (S)-2-benzyl-6-(8-chloro-5-methyl-4-oxo-2,3,4,5-tetrahydrobenzo[b][1,4]oxazepin-3-yl)-7-oxo-4,5,6,7-tetrahydro-2H-pyrazolo[3,4-c]pyridine-3-carboxamide]
remaining activity at 0.1 µM [1]: 60%
remaining activity at 0.1 µM [2]: 71%
remaining activity at 0.1 µM [3]: 87%
remaining activity at 1 µM [4]: 100%
remaining activity at 0.1 µM [5]: 81%
remaining activity at 0.1 µM [6]: 83%
remaining activity at 1 µM [7]: 100%
remaining activity at 1 µM [8]: 100%
remaining activity at 0.1 µM [9]: 82%
remaining activity at 0.1 µM [10]: 65%
remaining activity at 0.1 µM [11]: 89%
remaining activity at 0.1 µM [12]: 88%
remaining activity at 0.1 µM [13]: 91%
remaining activity at 1 µM [14]: 100%
remaining activity at 1 µM [15]: 100%
remaining activity at 0.1 µM [16]: 88%
remaining activity at 1 µM [17]: 100%
remaining activity at 0.1 µM [18]: 72%
remaining activity at 0.1 µM [19]: 76%
remaining activity at 0.1 µM [20]: 66%
remaining activity at 0.1 µM [21]: 85%
remaining activity at 0.1 µM [22]: 83%
remaining activity at 1 µM [23]: 100%
remaining activity at 0.1 µM [24]: 91%
remaining activity at 0.1 µM [25]: 66%
remaining activity at 0.1 µM [26]: 67%
remaining activity at 1 µM [27]: 100%
remaining activity at 1 µM [28]: 100%
